Measured values from ChEMBL document CHEMBL4665900, “Novel Pyrido-pyrimidinones and Pteridinones as Endoribonuclease Inositol Requiring Enzyme 1 (IRE1α) Inhibitors for Treating Cancer” (ACS Med Chem Lett, 2020).

Molecular target: Serine/threonine-protein kinase/endoribonuclease IRE1 (Homo sapiens, UniProt O75460)
Test: Inhibition of human His-tagged IRE1alpha expressed in Sf9 insect cells preincubated for 1 hr followed by Alexa fluor 647-labeled probe addition and measured after 1 hr by TR-FRET assay

Sequence of Serine/threonine-protein kinase/endoribonuclease IRE1 (O75460 whole entry): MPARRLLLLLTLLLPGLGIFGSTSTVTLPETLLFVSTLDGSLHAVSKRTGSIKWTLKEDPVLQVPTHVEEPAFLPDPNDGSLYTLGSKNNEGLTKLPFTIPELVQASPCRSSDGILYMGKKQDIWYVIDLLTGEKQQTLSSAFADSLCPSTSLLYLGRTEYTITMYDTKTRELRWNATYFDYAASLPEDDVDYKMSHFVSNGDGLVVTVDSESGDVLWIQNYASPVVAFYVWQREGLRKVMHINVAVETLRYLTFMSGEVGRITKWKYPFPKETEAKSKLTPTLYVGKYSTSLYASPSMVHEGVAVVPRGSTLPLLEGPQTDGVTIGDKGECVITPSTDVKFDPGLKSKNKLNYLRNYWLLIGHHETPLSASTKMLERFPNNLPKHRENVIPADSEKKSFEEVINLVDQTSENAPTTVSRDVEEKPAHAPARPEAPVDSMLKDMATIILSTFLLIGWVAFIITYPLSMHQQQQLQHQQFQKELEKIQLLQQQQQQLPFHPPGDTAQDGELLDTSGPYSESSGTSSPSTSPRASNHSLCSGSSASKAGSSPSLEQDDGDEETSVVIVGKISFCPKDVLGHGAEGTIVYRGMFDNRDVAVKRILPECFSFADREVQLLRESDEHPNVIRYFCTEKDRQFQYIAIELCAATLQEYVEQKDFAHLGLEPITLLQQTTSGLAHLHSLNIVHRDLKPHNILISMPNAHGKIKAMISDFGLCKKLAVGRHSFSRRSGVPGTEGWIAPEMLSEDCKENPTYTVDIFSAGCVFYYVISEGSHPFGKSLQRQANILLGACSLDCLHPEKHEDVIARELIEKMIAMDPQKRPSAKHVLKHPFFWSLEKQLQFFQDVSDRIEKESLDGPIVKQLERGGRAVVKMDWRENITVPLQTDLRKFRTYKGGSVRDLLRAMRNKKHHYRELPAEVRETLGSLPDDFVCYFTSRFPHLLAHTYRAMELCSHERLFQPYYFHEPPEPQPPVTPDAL

SMILES	IC50 [nM]
CC(C)n1c(=O)c(-c2cc(F)c(NS(=O)(=O)CC3(C(F)(F)F)CC3)c(F)c2)nc2cnc(N[C@H]3CC[C@H](N(C)C)CC3)nc21	0.1
COCCN(C)[C@H]1CC[C@H](Nc2ncc3cc(-c4ccc(NS(=O)(=O)Cc5ccc(F)cc5)c(F)c4)c(=O)n(C(C)C)c3n2)CC1	0.05
CC(C)n1c(=O)c(-c2c(F)cc(NS(=O)(=O)Cc3ccc(F)cc3)cc2F)cc2cnc(N[C@H]3CC[C@H](N(C)C)CC3)nc21	0.08
Cc1ccc(CS(=O)(=O)Nc2ccc(-c3nc4cnc(N[C@@H]5CNC[C@@H](F)C5)nc4n(C(C)C)c3=O)cc2F)c(C#N)c1	0.09
COc1cccc(CS(=O)(=O)Nc2c(F)cc(-c3cc4cnc(N[C@@H]5CNC[C@@H](F)C5)nc4n(C(C)C)c3=O)c(F)c2F)c1	0.11
CC(C)n1c(=O)c(-c2ccc(NS(=O)(=O)Cc3ccc(C#N)cc3)c(F)c2)nc2cnc(N[C@@H]3CNC[C@@H](F)C3)nc21	0.1
